Assay results from PMC3523740 (Chemistry & biodiversity, 2012).
Read-outs that look alike come from different tables or passages of the source.

Columns and labels:
[1] = biological target: (M0)NP2; details: read-out: Kd^Hm (nM) at pH 5.5; cited from earlier work
[2] = biological target: NP2(D1A); details: read-out: Kd^Hm (nM) at pH 7.5; cited from earlier work
[3] = biological target: (M0)NP2; details: read-out: Kd^Hm (nM) at pH 7.5; cited from earlier work
[4] = biological target: NP2(D1A); details: read-out: Kd^Hm (nM) at pH 5.5; cited from earlier work
[5] = Nitric oxide dissociation constant of the Fe; format: binding; details: pH 5.0, 27 °C
[6] = read-out: Kd^NO at pH 7.5, nitric oxide; cited from earlier work
[7] = histamine, cited from earlier work
[8] = Kinetics of nitric oxide release; format: binding
[9] = Stopped-flow kinetics of histamine binding and release; details: pH 5.5, calculated from Kd = koff/kon

Row | Molecule | Kd [1] [nM] | Kd [2] [nM] | Kd [3] [nM] | Kd [4] [nM] | Kd^NO at pH 5.0 [5] | Kd [6] [µM] | koff^Hm at pH 5.5 ([7]; pH 5.5) | koff^Hm at pH 7.5 ([7]; pH 7.5) | kon^Hm at pH 7.5 ([7]; pH 7.5) | kon^NO at pH 5.0 ([8]; pH 5.0, 27 °C) | koff^NO at pH 5.0 ([8]; pH 5.0, 27 °C, displacement by histamine, this work) | koff^NO at pH 7.5 ([8]; pH 7.5, 27 °C, displacement by histamine, this work) | kon^NO at pH 7.5 ([8]; pH 7.5, calculated from Kd = koff/kon) | kon^Hm at pH 5.5 [9]
2 | (M0)NP2: Recombinant nitrophorin 2 expressed in E. coli retaining methionine-0 from the start codon (N-terminus MDC…) |  |  |  |  | Too small to meas. | 0.005 ± 0.001 | 0.163 ± 0.011 ^b s^−1 | 0.056 ± 0.003 ^b s^−1 | 4.5 ± 0.1 ^b μM^−1s^−1 | Too large to meas. | 0.049 ± 0.002 ^TW s^−1 | 0.161 ± 0.005 ^TW s^−1 | 32.3 ± 6.5 ^a μM^−1s^−1 | 0.7 ± 0.1 ^a μM^−1s^−1
